Data from US20100189802A1, “Method for treatment of vascular hyperpermeability” (Scott and White Memorial Hospital and Scott, Sherwood, and …, priority 2007, published 2010).

B1: Angiopoietin-1: an endothelial cell growth factor (protein, UniProt Q15389 16-498, looked up)
Angiopoietin-1: HIGCSNQRRSPENSGRRYNRIQHGQCAYTFILPEHDGNCRESTTDQYNTNALQRDAPHVEPDFSSQKLQHLEHVMENYTQWLQKLENYIVENMKSEMAQIQQNAVQNHTATMLEIGTSLLSQTAEQTRKLTDVETQVLNQTSRLEIQLLENSLSTYKLEKQLLQQTNEILKIHEKNSLLEHKILEMEGKHKEELDTLKEEKENLQGLVTRQTYIIQELEKQLNRATTNNSVLQKQQLELMDTVHNLVNLCTKEGVLLKGGKREEEKPFRDCADVYQAGFNKSGIYTIYINNMPEPKKVFCNMDVNGGGWTVIQHREDGSLDFQRGWKEYKMGFGNPSGEYWLGNEFIFAITSQRQYMLRIELMDWEGNRAYSQYDRFHIGNEKQNYRLYLKGHTGTAGKQSSLILHGADFSTKDADNDNCMCKCALMLTGGWWFDACGPSNLNGMFYTAGQNHGKLNGIKWHYFKGPSYSLRSTTMMIRPLDF

Key:
Sprague-Dawley rats = assay: Hemorrhagic shock-induced vascular hyperpermeability: FITC-albumin flux in mesenteric postcapillary venules by intravital microscopy; type: in vivo, rat
Text: For example, in an embodiment of the invention disclosed herein, Sprague-Dawley rats were anesthetized with urethane. Hemorrhagic shock was induced in the anesthetized rats by withdrawing blood to reduce the mean arterial pressure to 40 mm Hg for one hour. The rats were then resuscitated to 90 mmHg by administration of the shed blood and normal saline. Albumin labeled with fluorescein isothiocyanate (FITC) was given intravenously during the period in which shock was present. The mesenteric postcapillary venules in a transilluminated segment of small intestine were examined to quantitate changes in albumin flux using intravital microscopy.

endothelial cells = settings: traumatized animals, hemorrhagic shock; Childs et al. 2008; cited from earlier work

| Molecule | vascular hyperpermeability induced by hemorrhagic shock-induced apoptosis (Sprague-Dawley rats; alpha-lipoic acid administered to traumatized animals) | vascular hyperpermeability (Sprague-Dawley rats; alpha-lipoic acid, about 100 mg/kg, before the onset of hemorrhagic shock) | vascular hyperpermeability (Sprague-Dawley rats; alpha-lipoic acid, about 100 mg/kg, within 60 minutes after the development of hemorrhagic shock) | vascular hyperpermeability (Sprague-Dawley rats; angiopoietin-1 intravenously, 200 ng/ml, traumatized animals) | vascular hyperpermeability and apoptosis (endothelial cells) |
| --- | --- | --- | --- | --- | --- |
| O=C(O)CCCCC1CCSS1 (stereo not drawn) [Alpha-lipoic acid, alpha-lipoic acid] | attenuated the amount of vascular hyperpermeability | effective in reducing the amount of vascular hyperpermeability | effective in reducing the amount of vascular hyperpermeability |  |  |
| B1 |  |  |  | attenuated the amount of vascular hyperpermeability | potent inhibitor of vascular hyperpermeability and apoptosis |
